Experimental data: article PMC3049581, “Development and evaluation of human AP endonuclease inhibitors in melanoma and glioma cell lines” (British Journal of Cancer, 2011)
Entries after “also recorded” stand apart in the source; their conditions may differ.

Key:
[1] = molecular target: T1, D148E polymorphic variant of APE1 (Homo sapiens, UniProt P27695, D148E); assay: Radiolabelled oligonucleotide-based APE1 cleavage assay, D148E vs wild type; assay type: biochemical; settings: data not shown
T1 construct: made in house
Method: This basic assay was performed as described previously ([Madhusudan et al, 2005]). Briefly, a radiolabelled uracil-containing oligonucleotide (5′-CTCGCAAGUGGGTACCGA-3′) was annealed to a complementary oligonucleotide. […] AP site cleavage reaction consisted of 50 nM APE1 and 0.75 ng reduced AP site double-stranded oligonucleotide incubated at 37°C for 1 h. The sample was resolved on a 15% TBE Criterion Pre Cast Gel (Bio-Rad, Hemel Hempstead, Herts, UK) and the radiolabelled substrate and reaction products were visualised using a phosphorImager (Molecular Dynamics, Buckinghamshire, UK).

[2] = system: U89MG cells; assay: Aldehyde reactive probe assay, genomic AP sites; assay type: cell-based
Method: AP sites were quantified as described previously ([Madhusudan et al, 2005]). Genomic DNA was extracted from a pellet of 1 × 10^6 cells using the guanidine/detergent lysis method. Briefly, 0.5 ml of DNAzol (Helena Biosciences, Gateshead, UK) was added to the pellet and the cell lysate was gently passed several times through a pipette. The resultant viscous solution was centrifuged at 10 000 g for 10 min at 25°C. DNA was precipitated from the supernatant using 0.25 ml of 100% ethanol by gently inverting the tube 5–8 times at room temperature for 1–3 min. The DNA was washed twice in 0.4 ml of 75% ethanol. The DNA was then solubilized in TE buffer (pH 8.0), and the final concentration was adjusted to 100 μg ml^−1 (using a Gene Quant pro spectrophotometer). AP-site determinations were performed on the genomic DNA using an aldehyde reactive probe assay kit using the protocol provided by the manufacturer (BioVision Research Products, Mountainview, CA, USA). Untreated cells were compared with cells exposed to either MMS alone, APE1 inhibitor alone or combination of MMS and APE1 inhibitor. DNA was extracted at 90 min and AP site quantified as described previously. All experiments were performed in triplicate.

[3] = system: SK-Mel30 melanoma cell line; assay: MTS assay, potentiation of cytotoxic agents; assay type: cell-based; settings: inhibitor 10 μM
Method: (§1) MeWo, SKMel and MM418 melanoma cancer cell line were grown in RPMI culture medium (supplemented with penicillin 0.06 g l^−1, streptomycin 0.1 g l^−1 pH 7.0, 10% foetal bovine serum (FBS, PAA Cell Culture Company, Yeovil, Somerset, UK). U89 MG and SNB-19 glioma cell lines were grown in DMEM (supplemented with penicillin 0.06 g l^−1, streptomycin 0.1 g l^−1 pH 7.0, 10% foetal bovine serum (FBS, PAA Cell Culture Company). HUVEC endothelial cells were grown in a special media (199 Media+HAMS F12), and supplemented with 20% heat-inactivated foetal calf serum, 1% Hepes, 1% Glutamine, 12.5 μg Human EGF, 625 ng of Human bFGF, 3750 units of Heparin, penicillin 0.06 g l^−1, and streptomycin 0.1 g l^−1) Only cultures with a plating efficiency of over 70% were used for analyses.
(§2) To evaluate intrinsic cytotoxicity and to evaluate the potentiation of toxicity of cytotoxic agents by APE1 inhibitors, MTS assays were performed as per the manufacturer's recommendation (Promega, Southampton, UK). Briefly, 2000 cells per well (in 200 μl of medium) were seeded into a 96-well plate. For HUVEC cells, 5 μl of 2% type 2 gelatine (Sigma) was added to the wells and the plates were preincubated for 20 min at 37°C before seeding of cells. For intrinsic cytotoxicity assessments, cells were incubated with varying concentrations of APE1 inhibitors and the MTS assay was performed on day 5. […] Non-radioactive cell proliferation assay was conducted as described previously.

[4] = system: U89MG glioma cell line; assay: MTS assay, potentiation of cytotoxic agents; assay type: cell-based; settings: inhibitor 10 μM
Method: as §1, §2

[5] = molecular target: T1, D148E polymorphic variant of APE1; assay: Fluorescence-based AP site cleavage assay, D148E polymorph; assay type: biochemical
Method: A fluorescence-based AP site cleavage assay was performed as described previously with slight modifications ([Madhusudan et al, 2005]). Briefly, APE1 (50 nM) (New England Biolabs) was incubated in a buffer system consisting of 50 mM Tris-HCl, pH 8.0, 1 mM MgCl2, 50 mM NaCl, 2 mM DTT at 37°C for 10 min. 5′-F-GCCCCCXGGGGACGTACGATATCCCGCTCC-3′ and its complementary Q-labelled oligonucleotide (see above) were annealed in a buffer containing 100 μM Tris-HCl, 50 mM NaCl and 1 μM EDTA. AP-site cleavage was initiated by addition of the annealed substrate (25 nM) to the reaction mix. Fluorescence readings were taken at 5 min intervals during 30 min incubation at 37°C using an Envision Multilabel reader from Perkins Elmer (Cambridge, UK) with a 495 nm excitation and a 512 nm emission filter. If the DNA is cleaved at the abasic site at position 7 from the 5′-end by APE1, the 6-mer fluorescein-containing product will dissociate from its complement by thermal melting. As a result, the quenching effect of the 3′ dabcyl (which absorbs fluorescein fluorescence when in close proximity) is lost, and APE1 activity is measured indirectly as an increase in fluorescence signal (Figure 2A). Similar assays were developed for monitoring the AP endonuclease activity of endonuclease IV using a buffering system containing 10 mM HEPES-KOH, pH 7.4, 100 mM KCl and 60 ng of endonuclease IV (Trevigen, Abingdon, UK). The final DMSO concentration was maintained at 1.2% in all assays.
To estimate IC50 for APE1 inhibition, the ability of the compounds to inhibit APE1 at a range of concentrations (10 nM–100 μM) were evaluated in black 384-well plates. The reactions were set up as before and fluorescence intensity was measured every 5 min for 30 min following reaction initiation. Using the initial rate values from the assay, percent activity was calculated for each sample relative to a negative DMSO only control. […]

T1 sequence (P27695 whole entry D148E): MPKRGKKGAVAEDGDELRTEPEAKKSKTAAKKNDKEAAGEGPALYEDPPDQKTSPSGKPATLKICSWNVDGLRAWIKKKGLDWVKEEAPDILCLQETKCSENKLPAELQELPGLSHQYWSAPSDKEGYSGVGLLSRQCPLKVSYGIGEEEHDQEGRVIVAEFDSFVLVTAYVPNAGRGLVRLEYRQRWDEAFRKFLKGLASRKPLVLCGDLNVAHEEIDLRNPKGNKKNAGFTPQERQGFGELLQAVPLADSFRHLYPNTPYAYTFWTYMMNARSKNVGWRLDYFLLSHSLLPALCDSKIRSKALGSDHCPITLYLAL

SMILES: Cc1ccc(-c2nc(S(=O)(=O)c3ccccc3)c(SCC(=O)Nc3ccc(F)cc3)o2)cc1 [Compound 4, N-(4-fluorophenyl)-2-(4-phenylsulfonyl-2-(p-tolyl)oxazol-5-yl) sulfanyl-acetamide]
- preferential inhibitory activity towards D148E protein, radiolabelled assay [1]: confirmed
- AP site content in genomic DNA, combination with MMS ([2]; 10 μM inhibitor + MMS 600 μM, 90 min): increased AP site content
- AP site accumulation in genomic DNA, inhibitor alone ([2]; 10 μM, DNA extracted at 90 min, vs untreated cells): accumulated AP sites
- potentiation of cytotoxicity of MMS [3]: Potentiation
- potentiation of cytotoxicity of doxorubicin [3]: did not potentiate
- potentiation of cytotoxicity of temozolomide [3]: Potentiation
- potentiation of cytotoxicity of MMS [4]: Potentiation; also recorded: significantly potentiated
- potentiation of cytotoxicity of doxorubicin [4]: did not potentiate
- potentiation of cytotoxicity of temozolomide [4]: Potentiation; also recorded: significantly potentiated
- IC50 ([5]; D148E polymorph, 50 nM protein, read-out: IC50 for APE1 inhibition, D148E protein): 5.56 µM
- reduction of IC50 for D148E protein compared with wild type ([5]; D148E vs wild type): 50.5%
- preferential inhibitory activity towards D148E compared with wild type ([5]; fluorescence or radiolabelled assays): D148E was more sensitive to inhibition
